From patent publication US4692448A, “Bis(arylpiperazinyl)sulfur compounds” (Boehringer Ingelheim Pharmaceuticals, Inc., priority 1984, dated 1987)
Counter-ions that a name gives are not always drawn. Like-named read-outs stand apart in the source and are kept apart here.

How the values were obtained:
[1] = test system: histamine release from human leukocytes (basophils); experiment: Human basophil assay: inhibition of anti-IgE-induced (IgE-mediated) histamine release; format: cell-based; conditions: for IC50: Leukocyte; for inhibition of histamine release in human basophils (in words): IgE-mediated, in vitro
Procedure: In the experiments reported by this example compounds in accordance with the invention are evaluated to determine their ability to inhibit the IgE-mediated release of histamine from sensitized peripheral leucocytes (basophils). Separation of leukocytes is accomplished by a modification of the method of L. Lichtenstein and A. Osler, J. Exp. Med. 120: 507 (1964). Heparinized human blood (80-100 ml) is mixed with 20 ml of saline (0.2%) containing 0.6 g of dextrose and 1.2 g of dextran in propylene centrifuge tubes. The mixture is kept at ambient temperature for 60-90 minutes to allow the separation of erythrocytes from the platelet-leukocyte-rich supernate. The supernate is removed and centrifuged for 8 minutes at 10×g in the cold. The leukocyte pellet is washed twice with Tris buffer and finally suspended in 150-180 ml Tris-ACM buffer at 1-2×10^6 cells/ml. The reaction is carried out in 12×75 mm plastic tubes at a total volume of […]. The reaction medium includes 0.05 ml rabbit anti-human IgE, 0.2 ml of the test compound in Tris-ACM buffer at concentrations ranging from 10-1000 μM, and 1.0 ml of the leukocyte suspension. The reaction mixture is incubated in a 37° C. shaking water bath for 60 minutes. Upon completion of the reaction, the tubes are centrifuged and the supernatants collected. The protein is removed from the supernatants by precipitation with 0.2 ml of 8% perchloric acid. Histamine release is measured by the automated fluorometric method of W Siraganian and W. Hook in Chapter 108, pages 808-821 of the Manual of Clinical Immunology, 2nd Edition, edited by R. Rose and H. Friedman, published by the American Society for Microbiology, Washington, D.C., 1980. Percent inhibition is calculated as follows: [formula] The concentration which causes a 50 percent inhibition (1C50) of histamine release is interpolated from a plot of percent inhibition versus the logarithm of drug concentration.

[2] = test system: histamine release from basophils activated by ionophore A-23187; experiment: Human basophil assay: inhibition of histamine release induced by non-immunological ionophore A-23187; format: cell-based; conditions: 1000-fold test dosage range
Procedure: Separation of leukocytes is accomplished by a modification of the method of L. Lichtenstein and A. Osler, J. Exp. Med. 120: 507 (1964). Heparinized human blood (80-100 ml) is mixed with 20 ml of saline (0.2%) containing 0.6 g of dextrose and 1.2 g of dextran in propylene centrifuge tubes. The mixture is kept at ambient temperature for 60-90 minutes to allow the separation of erythrocytes from the platelet-leukocyte-rich supernate. The supernate is removed and centrifuged for 8 minutes at 10×g in the cold. The leukocyte pellet is washed twice with Tris buffer and finally suspended in 150-180 ml Tris-ACM buffer at 1-2×10^6 cells/ml.
The reaction is carried out in 12×75 mm plastic tubes at a total volume of 1.23 ml. […] The reaction mixture is incubated in a 37° C. shaking water bath for 60 minutes. Upon completion of the reaction, the tubes are centrifuged and the supernatants collected. The protein is removed from the supernatants by precipitation with 0.2 ml of 8% perchloric acid.
Histamine release is measured by the automated fluorometric method of W Siraganian and W. Hook in Chapter 108, pages 808-821 of the Manual of Clinical Immunology, 2nd Edition, edited by R. Rose and H. Friedman, published by the American Society for Microbiology, Washington, D.C., 1980. Percent inhibition is calculated as follows: [formula] […]

lipoxygenase pathway = experiment: Blocking the metabolic conversion of arachidonic acid in the lipoxygenase pathway; conditions: no method or data given
[3] = 1 h, human basophils, rabbit anti-human IgE, 37° C., 60 minutes, read-out: IN VITRO INHIBITION OF HISTAMINE RELEASE IC50

IC50 [1, 3] [µM]	Structure (SMILES)	further results
2	Clc1ccc(CN2CCN(CCCSSCCCN3CCN(Cc4ccc(Cl)cc4)CC3)CC2)cc1 [Example 1, 1,1'-(Dithiodi-3,1-propanediyl)bis[4-(4-chlorobenzyl)piperazine]]	
2.4	Clc1ccc(CN2CCN(CCSSCCN3CCN(Cc4ccc(Cl)cc4)CC3)CC2)cc1 [Example 2, 1,1'-(dithiodi-2,1-ethanediyl)bis[4-(4-chlorobenzyl)piperazine]tetrahydrochloride]	IC50 [2]: 2.67 µM; blocking the metabolic conversion of arachidonic acid in the lipoxygenase pathway (in words) (lipoxygenase pathway): effective in blocking; IC50 ([1]; Homo sapiens, anti-IgE, further repetition of testing, read-out: IC50 (histamine release), further repetition): 5.29 µM; IC50 ([1]; Homo sapiens, anti-IgE, range of concentrations up to the limits of its solubility, read-out: IC50 (histamine release)): 3.7 µM
15	Cc1ccccc1CN1CCN(CCSSCCN2CCN(Cc3ccccc3C)CC2)CC1 [Example 3, 1,1'-(dithiodi-2,1-ethanediyl)bis[4-(2-methylbenzyl)piperazine]tetrahydrochloride]	
2.4	Clc1ccc(CN2CCN(CCCSCCN3CCN(Cc4ccc(Cl)cc4)CC3)CC2)cc1 [Example 4, {2-[4-(4-chlorobenzyl)piperazin-1-yl)ethyl}{3-[4-(4-chlorobenzyl)piperazin-1-yl]propyl}sulfide tetrahydrochloride]	
1.9	Clc1ccc(CN2CCN(CCCSCCCN3CCN(Cc4ccc(Cl)cc4)CC3)CC2)cc1 [Example 5, 1,1'-(thio-3,1-propanediyl) bis-[4-(4-chlorobenzyl)piperazine] tetrahydrochloride]	
5.6	[O-][S+](CCCN1CCN(Cc2ccc(Cl)cc2)CC1)CCCN1CCN(Cc2ccc(Cl)cc2)CC1 [Example 6, 1,1'-(sulfinyl-3,1-propanediyl) bis[4-(4-chlorobenzyl)piperazine] tetrahydrochloride]	
3.4	O=S(=O)(CCCN1CCN(Cc2ccc(Cl)cc2)CC1)CCCN1CCN(Cc2ccc(Cl)cc2)CC1 [Example 7, 1,1'-(sulfonyl-3,1-propanediyl) bis[4-(4-chlorobenzyl)piperazine] tetrahydrochloride]	
28	N#Cc1ccc(CN2CCN(CCSSCCN3CCN(Cc4ccc(C#N)cc4)CC3)CC2)cc1 [Example 8, 1,1'-(dithiodi-2,1-ethanediyl)bis[4-(4-cyanobenzyl)piperazine] tetrahydrochloride]	
13.7	c1ccc(CN2CCN(CCCSSCCCN3CCN(Cc4ccccc4)CC3)CC2)cc1 [Example 9, 1,1'-(dithiodi-3,1-propanediyl)bis(4-benzylpiperazine) tetrahydrochloride]	
> 1000	Cl.Cl.Cl.Cl.Clc1ccc(CCN2CCN(CCCSSCCCN3CCN(CCc4ccc(Cl)cc4)CC3)CC2)cc1 [Example 10, 1,1'-(dithiodi-3,1-propanediyl)-bis [4-(4-chlorophenethyl)piperazine] tetrahydrochloride]	inhibition of histamine release in human basophils (in words) [1]: absence of observed activity
> 1000	Clc1ccc(CN2CCCN(CCCSSCCCN3CCCN(Cc4ccc(Cl)cc4)CC3)CC2)cc1 [Example 11, 1,1'-(dithiodi-3,1-propanediyl)bis[4-(4-chlorobenzyl)homopiperizine] tetrahydrochloride]	inhibition of histamine release in human basophils (in words) [1]: absence of observed activity
4.7	Cc1ccc(CN2CCN(CCSSCCN3CCN(Cc4ccc(C)cc4)CC3)CC2)cc1 [Example 12, 1,1'-(dithiodi-2,1-ethanediyl)bis[4-(4-methylbenzyl)piperazine] tetrahydrochloride]	
> 1000	Cl.Cl.Cl.Cl.Clc1ccc(CCCN2CCN(CCSSCCN3CCN(CCCc4ccc(Cl)cc4)CC3)CC2)cc1 [Example 13, 1,1'-(dithiodi-2,1-ethanediyl)bis{4-[3-(4-chlorophenyl)propyl]piperazine} tetrahydrochloride]	inhibition of histamine release in human basophils (in words) [1]: absence of observed activity
